From PubChem BioAssay AID1159559 (GlaxoSmithKline (GSK), 2015)
The source made the active and inactive calls.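 How the source made its calls: active means compounds whose IC50 against parasite growth in infected mouse cells is below 50000 nM; inactive means the rest.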

Test system: T. cruzi Tulahuen in NIH-3T3, beta-gal fluorescence, 4 d
Assay: T. cruzi intracellular growth inhibition, cell-based (AID 1159559)

Structure (SMILES) | IC50
Cc1nn(-c2nc3ccccc3s2)c2c1C(c1ccc(OCC(N)=O)cc1)SCC(=O)N2 (stereo not given) | 5000 nM
CNS(=O)(=O)c1ccccc1Nc1nc(Nc2ccnn2C)ncc1Cl | 400 nM
COc1ccc(NS(=O)(=O)c2cccc(NC(=O)c3cc(F)cc(F)c3)c2)cc1 | 790 nM
O=C(Nc1nccs1)c1ccccc1Cn1cc([N+](=O)[O-])cn1 | > 50000 nM (inactive)
CCN(Cc1nc2ccc(C(=O)N3CCN(c4ncccn4)CC3)cc2[nH]1)C1CCCc2cccnc21 (stereo not given) | 1300 nM
CS(=O)(=O)c1cccc(-c2cnc(N)c3c(-c4ccc(CO)cc4)csc23)c1 | 790 nM
c1ccc(-c2nc(NC3CCCC3)c3ccccc3n2)nc1 | 2000 nM
COc1cccc(-c2cc(C(F)(F)F)nc(-n3ccc([N+](=O)[O-])n3)n2)c1 | 400 nM
CNc1cncc(C2CCCN2C(=O)Cc2coc3cc(C)ccc23)n1 (stereo not given) | 160 nM
CCCc1cc(N)nc(-c2cc(CCC)cc(N)n2)c1 | 2000 nM
NS(=O)(=O)c1ccc(Nc2nccc(-c3cnn4ncccc34)n2)cc1 | 2500 nM
COc1ccc([N+](=O)[O-])cc1NC(=O)Nc1cccc(Cl)c1 | 790 nM
O=C(Nc1cccc(F)c1)N1CCC(Oc2cccc(-c3cccnc3)c2)CC1 | 630 nM
Cc1cc2nc(N3CC[C@H]3C(N)=O)nc(Nc3cc(C4CC4)[nH]n3)c2s1 | 6300 nM
CC(=O)Nc1ccc(CN2CCC(N3CC(c4ccccc4)(c4ccccc4)OCC3=O)CC2)cc1 | 13000 nM
N#Cc1ccc(S(=O)(=O)N2CCC3(CCN(c4ccccc4)C3=O)CC2)cc1 | 1300 nM
Cc1ccc(Nc2nc(N)nc(CNC(c3nc4ccccc4[nH]3)C(C)C)n2)cc1 (stereo not given) | 1000 nM
CCn1c(-c2nonc2N)nc2c([C@@H](C)O)ncc(O[C@H](CN)c3ccccc3)c21 | 7900 nM
CCOC(=O)c1cn[nH]c1S(=O)(=O)N1CCC1c1ccccc1 (stereo not given) | > 50000 nM (inactive)
O=C(CN1CCN(c2ccccn2)CC1)Nc1cc(S(=O)(=O)N2CCCCCC2)ccc1Cl | 10000 nM
